Entries after “also recorded” stand apart in the source; their conditions may differ. Where two headings read alike, the source gives them in different places. Each block holds one compound with its values, some of them ahead of it.
Key:
A121 (ovarian carcinoma) = assay: tumor cell growth inhibition (SRB, 72 h drug exposure); type: cell-based, human; details: for IC50: 72 h drug exposure
Procedure: (§1) Lower numbers indicate higher potency. […] The data represent the mean values of at least three separate experiments. Lower numbers indicate greater activity.
(§2) Assessment of cell growth inhibition was determined according to the methods of Skehan et al., J. Nat. Cancer Inst. […] Briefly, cells were plated between 400 and 1200 cells/well in 96 well plates and incubated at 37° C. for 15-18 h prior to drug addition to allow attachment of cells. […] After a 72 h incubation, […] of ice-cold 50% TCA was added to each well and incubated for 1 h at 4° C. Plates were then washed 5 times with tap water to remove TCA, low-molecular-weight metabolites and serum proteins. Sulforhodamine B (SRB) (0.4%, […]) was added to each well. Following a 5 min incubation at room temperature, plates were rinsed 5 times with 0.1% acetic acid and air dried. […] Optical density was measured at 570 nm.

[1] = test system: A549 (non-small cell lung carcinoma); assay: as above; type: cell-based, human; details: for IC50: 72 h drug exposure, read-out: A549 (NSCLC) IC50
Procedure: as §1, §2

HT-29 (colon carcinoma) = assay: as above; type: cell-based, human; details: for IC50: 72 h drug exposure
Procedure: as §1, §2

MCF7 (mammary carcinoma) = assay: as above; type: cell-based, human; details: for IC50: 72 h drug exposure
Procedure: as §1, §2

[2] = test system: LCC6-WT: human breast carcinoma; assay: cytotoxicity assay of second generation taxoids; type: cell-based; details: 72 h drug exposure, read-out: LCC6-WT IC50
Procedure: A cytotoxicity assay of these new second generation taxoids was performed on human breast cancer cell lines, LCC6-WT and LCC-MDR, and selected taxoids were also assayed for their potency against MCF7 and MCF7-R (Skehan, P., et al., J. Nat. Cancer Inst. 1990, 82, 1107-1112).

[3] = test system: LCC6-MDR: MDR1 transduced line; assay: cytotoxicity assay of second generation taxoids; type: cell-based, human; details: for activity against drug-resistant vs drug-sensitive cell lines, in words: LCC6 and MCF7 pairs
A2780 = assay: growth inhibition by cell counts, 72 h; type: cell-based, human; details: Homo sapiens, A2780, 72 h; read-out: A2780 IC50
Procedure: (§3) Cells were plated in 6-well flat bottom plates (Falcon, Lincoln Park, N.J.) at a concentration of 10^5 cells ml in complete medium. After 24 h, the medium was replaced with media containing the test substances. Control cells were treated with vehicle alone. Cells were then washed twice and cultures maintained up to 72 h in complete medium (without removing the test substances). At this time point quadruplicate counts of triplicate cultures were performed. To calculate the growth inhibition effect, three independent experiments were performed for each test substance/cell line. The IC50 values were then calculated by fitting the concentration-effect curve data obtained in the three experiments with the sigmoid-Emax model using nonlinear regression, weighted by the reciprocal of the square of the predicted effect according to the method of Motulsky, H. J. and Ransnas, L. A., FASEB J. 1:365-74 (1987).

DU-145 = assay: growth inhibition by cell counts, 72 h; type: cell-based, human; details: Homo sapiens, DU-145, 72 h; read-out: DU-145 IC50
Procedure: as §3

MCF-7 ADRr = assay: growth inhibition by cell counts, 72 h; type: cell-based, human; details: Homo sapiens, MCF7, 72 h; read-out: MCF-7 ADRr IC50
Procedure: as §3

MCF-7 wt = assay: growth inhibition by cell counts, 72 h; type: cell-based, human; details: Homo sapiens, MCF7, 72 h; read-out: MCF-7 wt IC50
Procedure: as §3

NCI-H23 = assay: growth inhibition by cell counts, 72 h; type: cell-based, human; details: Homo sapiens, NCI-H23, 72 h; read-out: NCI-H23 IC50
Procedure: as §3

WiDr = assay: growth inhibition by cell counts, 72 h; type: cell-based, human; details: Homo sapiens, WiDr, read-out: WiDr IC50
Procedure: as §3

[4] = test system: MCF7-R (mammary carcinoma cells 180-fold resistant to adriamycin); assay: tumor cell growth inhibition (SRB, 72 h drug exposure); type: cell-based, human; details: for IC50: 72 h drug exposure
Procedure: as §1, §2

[5] = Table 1, read-out: MCF7 (breast) IC50

Compound: CC(=O)O[C@@]12CO[C@@H]1C[C@H](O)[C@@]1(C)C(=O)[C@H](O)C3=C(C)[C@@H](OC(=O)[C@H](O)[C@H](CC(C)(C)C)NC(=O)OC(C)(C)C)C[C@@](O)([C@@H](OC(=O)c4ccccc4)[C@H]21)C3(C)C [3′-dephenyl-3′-neopentyldocetaxel]
cytotoxicity in words (A121 (ovarian carcinoma); A121 human ovarian): virtually not cytotoxic | cytotoxicity in words ([1]; A549 human non-small cell lung): virtually not cytotoxic | cytotoxicity in words (HT-29 (colon carcinoma); HT-29 human colon): virtually not cytotoxic | cytotoxicity in words (MCF7 (mammary carcinoma); MCF7 human breast): virtually not cytotoxic

Compound: CCC(=O)OC1C(=O)C2(C)C(O)CC3OCC3(OC(C)=O)C2C(OC(=O)c2cccc(OC)c2)C2(O)CC(OC(=O)C(O)C(C=C(C)C)NC(=O)OC(C)(C)C)C(C)=C1C2(C)C (stereo not shown) [Taxoid 7f, 3′-Dephenyl-3′-(2-methylprop-1-enyl)-2-debenzoyl-2-(3-methoxybenzoyl)-10-propanoyldocetaxel]
IC50 (MCF7 (mammary carcinoma); Table 3, read-out: MCF7 IC50): 0.36 nM | IC50 ([4]; Table 3): 0.33 nM | IC50 [2]: 1 nM | activity against drug-resistant vs drug-sensitive cell lines, in words [3]: slightly better activity against the drug-resistant cell lines; also recorded: virtually no difference in activity

Compound: COc1cccc(C(=O)OC2C3C4(OC(C)=O)COC4CC(O)C3(C)C(=O)C(OC(C)=O)C3=C(C)C(OC(=O)C(O)C(C=C(C)C)NC(=O)OC(C)(C)C)CC2(O)C3(C)C)c1 (stereo not shown) [Taxoid 7l, 3′-Dephenyl-3′-(2-methylprop-1-enyl)-2-debenzoyl-2-(3-methoxybenzoyl)-10-acetyldocetaxel]
IC50 (MCF7 (mammary carcinoma); Table 3, read-out: MCF7 IC50): 0.8 nM | IC50 ([4]; Table 3): 2.3 nM | IC50 [2]: 0.6 nM

Compound: CC=CC(NC(=O)OC(C)(C)C)C(O)C(=O)OC1CC2(O)C(OC(=O)c3ccccc3)C3C4(OC(C)=O)COC4CC(O)C3(C)C(=O)C(OC(C)=O)C(=C1C)C2(C)C (stereo not shown) [Taxoid Ia, 3′-dephenyl-3′-(1-propenyl)-10-acetyldocetaxel]
IC50 (A121 (ovarian carcinoma)): 0.9 nM | IC50 [1]: 0.54 nM | IC50 (HT-29 (colon carcinoma)): 0.76 nM | IC50 (MCF7 (mammary carcinoma); [5]): 0.51 nM | IC50 ([4]; Table 1): 14 nM | times better activity than docetaxel ([4]; MCF7-R): 17 times | times better activity than paclitaxel ([4]; MCF7-R): 21 times

Compound: CC(=O)OC1C(=O)C2(C)C(O)CC3OCC3(OC(C)=O)C2C(OC(=O)c2ccccc2)C2(O)CC(OC(=O)C(O)C(NC(=O)OC(C)(C)C)C(F)(F)F)C(C)=C1C2(C)C (stereo not shown) [Taxoid Ig, 3′-Dephenyl-3 ′-trifluoromethyl-10-acetyldocetaxel]
IC50 (A121 (ovarian carcinoma)): 0.37 nM | IC50 [1]: 0.25 nM | IC50 (HT-29 (colon carcinoma)): 0.4 nM | IC50 (MCF7 (mammary carcinoma); [5]): 0.25 nM | IC50 ([4]; Table 1): 17 nM

More lines, main results first:

IC50 (A121 (ovarian carcinoma); Homo sapiens, A121): 1.2 nM | IC50 ([1]; Homo sapiens, A549): 1 nM | IC50 (HT-29 (colon carcinoma); Homo sapiens, HT-29): 1.2 nM | IC50 (MCF7 (mammary carcinoma); Homo sapiens, MCF7, Table 1, read-out: MCF7 (breast) IC50): 1 nM | IC50 (MCF7 (mammary carcinoma); Homo sapiens, MCF7, Table 3, read-out: MCF7 IC50): 1 nM | IC50 (A2780): 4.95 nM | IC50 (DU-145): 0.8 nM | IC50 (MCF-7 ADRr): 970 nM | IC50 (MCF-7 wt): 3.6 nM | IC50 (NCI-H23): 3 nM
Compound: CC(=O)O[C@@]12CO[C@@H]1C[C@H](O)[C@@]1(C)C(=O)[C@H](O)C3=C(C)[C@@H](OC(=O)[C@H](O)[C@@H](NC(=O)OC(C)(C)C)c4ccccc4)C[C@@](O)([C@@H](OC(=O)c4ccccc4)[C@H]21)C3(C)C [Docetaxel, docetaxel, reference compound]
IC50 ([2]; Homo sapiens): 1 nM | IC50 ([3]; Homo sapiens, LCC6MDR, 72 h drug exposure, read-out: LCC6-MDR IC50): 120 nM | IC50 (WiDr): 2.3 nM

IC50 (MCF7 (mammary carcinoma); Table 3, read-out: MCF7 IC50): 1 nM | IC50 ([4]; Table 3): 2.1 nM
Compound: CCC(=O)OC1C(=O)C2(C)C(O)CC3OCC3(OC(C)=O)C2C(OC(=O)c2cccc(N=[N+]=[N-])c2)C2(O)CC(OC(=O)C(O)C(CC(C)C)NC(=O)OC(C)(C)C)C(C)=C1C2(C)C (stereo not shown) [Taxoid 7n, 3′-Dephenyl-3′-(2-methylpropyl)-2-debenzoyl-2-(3-azidobenzoyl)-10-propanoyldocetaxel]
IC50 [2]: 1.1 nM

IC50 (MCF7 (mammary carcinoma); Table 3, read-out: MCF7 IC50): 0.9 nM | IC50 ([4]; Table 3): 1.1 nM
Compound: CCC(=O)OC1C(=O)C2(C)C(O)CC3OCC3(OC(C)=O)C2C(OC(=O)c2cccc(N=[N+]=[N-])c2)C2(O)CC(OC(=O)C(O)C(C=C(C)C)NC(=O)OC(C)(C)C)C(C)=C1C2(C)C (stereo not shown) [Taxoid 7o, 3′-Dephenyl-3′-(2-methylprop-1-enyl)-2-debenzoyl-2-(3-azidobenzoyl)-10-propanoyldocetaxel]
IC50 [2]: 0.9 nM | activity against drug-resistant vs drug-sensitive cell lines, in words [3]: virtually no difference in activity

IC50 (MCF7 (mammary carcinoma); Table 3, read-out: MCF7 IC50): 0.8 nM | IC50 ([4]; Table 3): 5 nM
Compound: CC(=O)OC1C(=O)C2(C)C(O)CC3OCC3(OC(C)=O)C2C(OC(=O)c2cccc(C)c2)C2(O)CC(OC(=O)C(O)C(C=C(C)C)NC(=O)OC(C)(C)C)C(C)=C1C2(C)C (stereo not shown) [Taxoid 7q, 3′-Dephenyl-3′-(2-methylprop-1-enyl)-2-debenzoyl-2-(3-methylbenzoyl)-10-acetyldocetaxel]
IC50 [2]: 1.5 nM

— patent US6500858B2, “Taxoid anti-tumor agents and pharmaceutical compositions thereof” (The Research Foundation of the state University of New York, priority 1994, dated 2002)
